Measured values reported in publication PMC8772772, “Enantioselective Synthesis and Pharmacological Evaluation of Aza-CGP37157–Lipoic Acid Hybrids for the Treatment of Alzheimer’s Disease” (Antioxidants, 2022).

Experiments:
HO-1 and GCLc = experiment: Western blot of NRF2-dependent proteins HO-1 and GCLc in AREc32 cells; assay type: cell-based; settings: 30 μM, 24 h, western blot vs basal
Description: AREc32 cells were seeded in 6 multi-well plates (1 × 10^6 cells/well) for 24 h and treated with compounds 7a and 7b (30 µM) and culture medium (basal) for 24 h. Thereafter, cells were collected and lysed in ice-cold lysis buffer (10% glycerol, 137 mM NaCl, 1% Nonidet P-40, 20 mM Tris HCl pH 7.5, 1 mM phenylmethylsulfonyl fluoride, 20 mM NaF, 1 mM sodium pyrophosphate, 1 μg/mL leupeptin and 1 mM Na3VO4). Then proteins (30 μg) were resolved by gel electrophoresis on sodium dodecyl sulfate–polyacrylamide (10% and 12%) and transferred to Immobilion-P membranes (MilliporeSigma, Madrid, Spain). The membranes were incubated with anti-GCLc (1:1000, Ab41463 (Abcam, Cambridge, MA, USA), anti-HO-1 (1:1000, ab68477, Abcam) or anti-Actin (1:100,000, A3854, Merck, Madrid, Spain). Peroxidase-conjugated secondary antibodies (1:10,000 and antirabbit: SC-2357, Santa Cruz Biotechnology, Dallas, TX, USA) were employed to detect the proteins by enhanced chemiluminescence. Band intensities corresponding to immunoblot detection of protein samples were quantitated with Fiji software.
Once in the nucleus, NRF2 binds to small MafG protein, and the resulting complex binds to the ARE sequences at the DNA to initiate the expression of phase II antioxidant proteins. HO-1 and GCLc are two prominent examples of antioxidant enzymes regulated by the NRF2-ARE pathway related to the heme group processing and the synthesis of glutathione, the major antioxidant defense inside the cells. […] Thereafter, protein expression was evaluated.

NRF2 = NRF2 nuclear localization, immunocytochemistry in AREc32 cells; assay type: cell-based; settings: 30 μM, 2 h, vs basal
Description: AREc32 cells were plated in 24 multi-well plates on poly-D-Lysine-coated crystal slides (4 × 10^4 cells/well). Cells were treated with compounds 7a or 7b (30 µM) for 2 h and fixed by treatment with 4% paraformaldehyde solution in PBS (10 min). After 3 washings with PBS every 5 min, cells were permeabilized with 0.1% Triton X-100 solution for five min, washed 3 times with PBS (5 min) and incubated overnight with primary antibody anti-NRF2 (1:50, A-10, sc-365949, Santa Cruz Biotechnology, Dallas, TX, USA). Thereafter, cells were washed with PBS (3×, 5 min) and incubated with secondary antibody (1:500, 1 h). Finally, nuclei were stained with 5 µg/mL PBS solution of Hoechst 33342 (Invitrogen, Madrid, Spain) during the second wash. Finally, slides were mounted on coverslips (glycerol–PBS (1:1 v/v)), and images were obtained in a confocal microscope (TCS SPE, Leica, Wetzlar, Germany).
To obtain deeper insight into the mechanism of action of compounds 7, we evaluated their potential capacity to induce NRF2 nuclear localization and the activation of the phase II response. As previously described, NRF2 is sequestered at the cytoplasm by its repressor protein KEAP1, which mediates its proteasomal degradation. […] Thus, we firstly evaluated the capacity of compounds 7a and 7b to induce NRF2 nuclear localization as part of their mechanism of action. […]

Row | SMILES | GCLc expression (HO-1 and GCLc) | HO-1 expression (HO-1 and GCLc) | NRF2 nuclear localization (NRF2)
1 | O=C1CN(CCOC(=O)CCCC[C@H]2CCSS2)[C@@H](c2ccccc2Cl)c2cc(Cl)ccc2N1 [(S,R)-7b, 2-((R)-7-Chloro-5-(2-chlorophenyl)-2-oxo-1,2,3,5-tetrahydro-4H-benzo[e][1,4]diazepin-4-yl)ethyl 5-((S)-1,2-dithiolan-3-yl)pentanoate] | significantly increased | significantly increased | predominantly nuclear localization of NRF2
2 | O=C1CN(CCOC(=O)CCCC[C@H]2CCSS2)[C@H](c2ccccc2Cl)c2cc(Cl)ccc2N1 [(S,S)-7a, 2-((S)-7-Chloro-5-(2-chlorophenyl)-2-oxo-1,2,3,5-tetrahydro-4H-benzo[e][1,4]diazepin-4-yl)ethyl 5-((S)-1,2-dithiolan-3-yl)pentanoate] | significantly increased | significantly increased | predominantly nuclear localization of NRF2
